Results published in patent publication US20090099123A1, “Antisense microRNA and uses therefor” (priority 2007, published 2009).

Assays:
[1] = tested on: prostate and pancreatic tumors and cells; conditions: cited from earlier work
miR-27a [2] = conditions: these and other cancer cells (refs 23, 42, 43); cited from earlier work
RKO and SW480 cells [3] = test: Induction of apoptosis / PARP cleavage in colon cancer cells (Western blot); assay type: cell-based
Method: (§1) FIG. 8A: Decreased cell survival in RKO cells. […] Cell survival is expressed as the percentage of β-CDODA-Me-treated cells remaining compared to DMSO (set at 100%).
(§2) RKO and SW480 colon cancer cells (2×10^4 per well) were plated in 12-well plates and allowed to attach for 24 hr. The medium was then changed to DMEM/Ham's F-12 medium containing 2.5% charcoal-stripped FBS, and either vehicle (DMSO) or different concentrations of the compound were added. Fresh medium and compounds were added every 48 hr, and cells were then trypsinized and counted after 48 and 96 hr using a Coulter Z1 cell counter. Transfection experiments in RKO and SW480 cells used 0.4 μg of reporter gene constructs and 0.04 μg of β-Gal and LipofectAMINE 2000 reagent (Invitrogen). Results of cell proliferation and transfection studies are expressed as means±S.E. for at least three replicate determinations for each treatment group. Western blots were determined with whole cell lysates essentially.

[4] = tested on: Sp1, Sp3, Sp4, VEGF, VEGFR1 and survivin; test: Sp and Sp-dependent mRNA and proteins in colon cancer cells (semi-quantitative RT-PCR, Western blot); assay type: cell-based
From the text: (§3) ID NO: 8), ZBTB10 (sense [NT] ID NO: 9); antisense [NT] ID NO: 10), VEGF (sense [NT] ID NO: 11); antisense [NT] ID NO: 12), VEGFR1 (sense [NT] ID NO: 13); antisense [NT] ID NO: 14), Survivin (sense [NT] ID NO: 15); antisense [NT] ID NO: 16) and GAPDH (sense [NT] ID NO: 17); antisense [NT] ID NO: 18).

[5] = tested on: RKO and SW480 colon cancer cells; test: Cell proliferation assay in colon cancer cells; assay type: cell-based
Method: as §1, §2

ZBTB10 = ZBTB10 by semi-quantitative RT-PCR in colon cancer cells; assay type: cell-based; conditions: RKO or SW480 cells, 18 hr
From the text: as §3

RKO and SW480 cells [6] = test: FACS cell cycle analysis in colon cancer cells; assay type: cell-based
Method: Effects of β-CDODA-Me. SW480 (FIG. 12A) and RKO (FIG. 12B) cells were treated for 24 hr with DMSO(O), 2.5 and 5.0 μM β-CDODA-Me, and analyzed by FACS analysis. FIG. 12C: iSp modulates Sp protein expression and the cell cycle in SW480 and RKO cells. Cells were transfected with iSp, a combination of small inhibitory RNAs for Sp1, Sp3 and Sp4 or a non-specific oligonucleotide (iLamin), and analyzed for Sp proteins by Western blots (to confirm Sp knockdown) and FACS analysis. FIG. 12D: as-miR-27a modulates the cell cycle. SW480 and RKO cells were transfected with different amounts of as-miR-27a and, after 48 hr, analyzed by FACS. All experiments in FIGS. 12A-12D were repeated three times, and results are expressed as means±SE. Significant (p<0.05) changes compared to untreated (0) or iLamin-treated cells are indicated by asterisks.
RKO and SW480 cells were treated with either the vehicle (DMSO) or the compound for 24 hr or with as-miR27a. Cells were trypsinized, centrifuged, and resuspended in staining solution containing 50 μg/mL propidium iodide, 4 mmol/L sodium citrate and 30 units/mL RNase. After incubation at room temperature for 1 hr, cells were analysed on a FACS Vantage SE DiVa made by Becton Dickinson (BD), using BD FACSDiva Software V4.1.1. Propidium iodide (PI) fluorescence was collected through a 610SP bandpass filter, and list mode data were acquired on a minimum of 50,000 single cells defined by a dot plot of PI width vs. PI area. Data analysis was performed in BD FACSDiva Software V4.1.1 using PI width vs. PI area to exclude cell aggregates.

Myt-1, Wee-1 and cdc2 = test: Myt-1 and Wee-1 expression and cdc2 phosphorylation in colon cancer cells; assay type: cell-based
Method: (§4) FIGS. 13A-13D show the in vitro and in vivo effects of β-CDODA-Me on G2/M arrest and inhibition of tumor growth. Effects of β-CDODA-Me (FIG. 13A, 13B) and as-miR-27a (FIG. 13C) on Myt-1 and cdc2 phosphorylation. Colon cancer cells were treated with different amounts of β-CDODA-Me or as-miR-27a for the indicated times, and Myt-1 expression and cdc2 phosphorylation were determined by real time PCR or Western blots, respectively. […] FIGS. 13D-13F: β-CDODA-Me inhibit tumor growth (volume) (FIG. 13D), weight (FIG. 13E) and miR-27a expression (FIG. 13F) in a mouse xenograft model. Nude mice bearing RKO cells as xenografts were treated with corn oil (solvent control) or β-CDODA-Me (15 mg/kg/d), and tumor volumes, tumor weights, and miR-27a expression were determined.
(§5) cDNA was prepared from the RKO and SW480, cell lines using Reverse Transcription System (Promega). Each PCR was carried out in triplicate in a 20-μl volume using SYBR Green Mastermix (Applied Biosystems, Foster City, Calif.) for 15 min at 95° C. for initial denaturing, followed by 40 cycles of 95° C. for 30 s and 60° C. for 1 min in the Applied Biosystems 7900HT Fast Real-time PCR System. The ABI Dissociation Curves software was used following a brief thermal protocol (95° C. for 15 s and 60° C. for 15 s, followed by a slow ramp to 95° C.) to control for multiple species in each PCR amplification. Values for each gene were normalized to expression levels of TATA-binding protein. The primers used for real-time PCR were Myt-1 (sense 5′-CCTTCCAAGAGTAGCTCCAATTC-3′ (SEQ ID NO: 19); antisense 5′-GCC GGT AGC TCC CAT ATG G-3′) (SEQ ID NO: 20) and TATA-binding protein (sense 5′-TGC ACA GGA GCC AAG AGT GM-3′ (SEQ ID NO: 21); antisense 5′-CACATCACAGCTCCCCACCA-3′) (SEQ ID NO: 22). miRNA was extracted using the mirVana miRNA extraction kit (Applied Biosystems). Quantification of miRNA (RNU6B and miRNA-27a) was done using the Taqman miRNA kit (Applied Biosystems) according to the manufacturer's protocol with real-time PCR. U6 small nuclear RNA was used as a control to determine relative miRNA expression.

miR-27a [7] = test: miR-27a by quantitative real time PCR in colon cancer cells; assay type: cell-based; conditions: RKO and SW480 cells, 18 hr
Method: as §5

RKO cells as xenografts = test: Xenograft study in athymic nude mice; assay type: in vivo
Method: as §4
Mice were used in accordance with institutional guidelines when they were 8-12 wk old. To produce tumors, RKO cells were harvested from subconfluent cultures by a brief exposure to 0.25% trypsin and 0.02% EDTA and only suspensions consisting of single cells with >90% viability were used for the injections. A xenograft was established by s.c. injection of the cells (5×10^6) into the flanks of individual mice and, after 6 days, mice were randomized into two groups of 5 mice per group and dosed by oral gavage in corn oil or 15 mg/kg/d B-CDODA-Me 5 days a week for 22 days. The mice were weighed, and tumor size was measured every third day with calipers to permit calculation of tumor volumes: V=LW^2/2, where L and W were length and width, respectively. Final tumors weights were determined at the end of the dosing regimen. Tumor tissues and selected body organs (liver and kidney) were either stored in RNAlater solution (per manufacture's recommendations) for later microRNA analysis, snap frozen and stored at −80° C., or fixed in 10% formalin and embedded in paraffin.

Sp3 gene promoter = test: Sp3 promoter construct luciferase activity in RKO cells; assay type: cell-based
Method: as §2

Sp1 gene promoter = test: Sp1 promoter construct luciferase activity in RKO cells; assay type: cell-based
Method: as §2

[8] = 15 mg/kg/d oral gavage, 5 days a week for 22 days, vs corn oil

Structure (SMILES): Cc1c(Cl)cccc1Nc1ccccc1C(=O)O [tolfenamic acid]
- growth of prostate and pancreatic tumors and cells [1]: inhibit growth
- levels of miR-27a RNA (miR-27a [2]): decrease

Structure (SMILES): COC(=O)[C@@]1(C)CC[C@]2(C)CC[C@]3(C)C(=CC(=O)[C@@H]4[C@@]5(C)C=C(C#N)C(=O)C(C)(C)[C@@H]5CC[C@]43C)[C@@H]2C1 [β-CDODA-Me, methyl-2-cyano-3,11-dioxo-18β-olean-1,12-dien-30-oate]
- apoptosis (RKO and SW480 cells [3]; RKO and SW480 cells): induced apoptosis
- caspase-dependent PARP cleavage (RKO and SW480 cells [3]; colon cancer cells (β-CDODA-Me: RKO; ZBTB10: SW480 and RKO)): induced
- Sp1, Sp3 and Sp4 mRNA levels ([4]; 24 hr, semi-quantitative RT-PCR): decreased expression
- expression of Sp-dependent proteins survivin, VEGFR1 (Flt-1) and VEGF ([4]; Western blot): decreased expression
- proliferation ([5]; 0.5-5 μM, 4 days): decreased proliferation
- proliferation and apoptosis responses after cotreatment with T007 ([5]; T007 10 μM): not affected
- ZBTB10 levels (ZBTB10): induced
- cell cycle arrest (RKO and SW480 cells [6]): induced a G2/M arrest
- percentage of cells in S phase (RKO and SW480 cells [6]; 24 hr, 2.5 and 5.0 μM respectively): increased and then decreased
- cells in G2/M (RKO and SW480 cells [6]; 24 hr, 2.5 and 5.0 μM, vs DMSO): increase
- percentage of cells in G0/G1 (RKO and SW480 cells [6]; 24 hr, 2.5 and 5.0 μM, vs DMSO): concentration-dependent decrease
- cdc2 phosphorylation (Myt-1, Wee-1 and cdc2; RKO and SW480 cells, Western blot): time-dependent induction
- Myt-1 mRNA expression (Myt-1, Wee-1 and cdc2; RKO and SW480 cells, real time PCR): induced
- Wee-1 expression (Myt-1, Wee-1 and cdc2; SW480 or RKO cells): did not affect
- miR-27a (miR-27a [7]): decreased
- levels of miR-27a RNA (miR-27a [2]): decrease
- body or organ weight loss associated with toxic side effects (RKO cells as xenografts; 15 mg/kg/d): not accompanied by any body or organ weight loss
- miR-27a expression in tumors (RKO cells as xenografts; [8]): inhibited
- tumor growth (volume) (RKO cells as xenografts; [8]): inhibited
- tumor weight (RKO cells as xenografts; [8]): inhibited
- luciferase activity, Sp3 promoter constructs (pSp3For5, pSp3For2) (Sp3 gene promoter): decreased luciferase activity
- luciferase activity, Sp1 promoter constructs (pSp1For4, pSp1For2, pSp1For1) (Sp1 gene promoter): decreased luciferase activity
